Source: patent US11826351B2, “Compounds useful as kinase inhibitors” (Loxo Oncology, Inc., priority 2015, dated 2023)
Like-named read-outs stand apart in the source and are kept apart here.

Experiments:
[1] = test system: OCI-Ly10 human DLBCL cells; assay: OCI-Ly10 anti-proliferative activity (Resazurin); type: cell-based; conditions: Homo sapiens, OCI-Ly10, 72 h, read-out: Proliferation Assay OCI-Ly10-20% FBS
In short: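 OCI-Ly10 human DLBCL cells, whose growth depends on NFκB signalling, were seeded at 7.5×10^3 cells per well in 96-well plates with a range of compound concentrations and kept at 37° C for 72 h. Resazurin was then added, and after 5 h fluorescence was read at 590 nm.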

[2] = target: T1, Recombinant EGFR (Homo sapiens, UniProt P00533); assay: EGFR binding affinity (LanthaScreen TR-FRET); conditions: Kinase Tracer 199, 5 h incubation
T1 construct: purchased Invitrogen
T1 sequence (P00533 25-1210): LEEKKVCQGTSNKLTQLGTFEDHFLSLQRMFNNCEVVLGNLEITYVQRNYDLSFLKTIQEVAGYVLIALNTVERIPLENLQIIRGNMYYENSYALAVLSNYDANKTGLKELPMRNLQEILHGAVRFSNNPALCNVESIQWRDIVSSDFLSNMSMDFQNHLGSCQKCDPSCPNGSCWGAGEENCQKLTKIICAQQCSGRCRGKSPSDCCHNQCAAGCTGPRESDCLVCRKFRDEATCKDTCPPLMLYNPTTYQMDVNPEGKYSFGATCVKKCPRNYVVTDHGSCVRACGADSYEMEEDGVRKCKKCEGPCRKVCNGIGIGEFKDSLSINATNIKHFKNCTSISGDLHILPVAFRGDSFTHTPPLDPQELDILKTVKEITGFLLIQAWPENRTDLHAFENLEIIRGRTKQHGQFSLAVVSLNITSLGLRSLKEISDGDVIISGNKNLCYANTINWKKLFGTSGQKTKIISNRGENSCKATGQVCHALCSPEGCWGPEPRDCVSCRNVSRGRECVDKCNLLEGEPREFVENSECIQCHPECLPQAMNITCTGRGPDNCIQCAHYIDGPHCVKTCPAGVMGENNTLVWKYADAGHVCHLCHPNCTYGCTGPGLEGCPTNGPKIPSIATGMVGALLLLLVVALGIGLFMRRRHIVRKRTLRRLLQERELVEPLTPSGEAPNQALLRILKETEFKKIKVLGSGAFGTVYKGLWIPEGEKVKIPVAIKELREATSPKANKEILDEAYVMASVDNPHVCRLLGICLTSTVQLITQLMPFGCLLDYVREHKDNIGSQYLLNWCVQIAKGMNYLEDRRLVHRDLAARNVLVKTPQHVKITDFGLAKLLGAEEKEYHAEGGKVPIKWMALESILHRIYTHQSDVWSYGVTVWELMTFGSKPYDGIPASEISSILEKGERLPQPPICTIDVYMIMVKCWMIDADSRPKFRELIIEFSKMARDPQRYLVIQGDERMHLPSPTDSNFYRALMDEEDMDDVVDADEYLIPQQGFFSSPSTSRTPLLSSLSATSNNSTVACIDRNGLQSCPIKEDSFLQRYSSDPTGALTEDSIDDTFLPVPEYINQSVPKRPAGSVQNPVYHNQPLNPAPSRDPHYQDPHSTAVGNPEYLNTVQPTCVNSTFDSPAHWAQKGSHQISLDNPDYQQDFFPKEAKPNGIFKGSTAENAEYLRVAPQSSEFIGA
In short: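 TR-FRET binding (LanthaScreen) with recombinant EGFR; signal measured across a compound concentration range. IC50 obtained by fitting RFU against log[inhibitor] to a variable-slope model.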

[3] = target: T2, Recombinant BTK^C481S kinase (Homo sapiens, UniProt Q06187, C481S); assay: BTK C481S binding affinity (LanthaScreen TR-FRET); conditions: Kinase Tracer 236, 5 h incubation
T2 construct: purchased SignalChem
T2 sequence (Q06187 whole entry C481S): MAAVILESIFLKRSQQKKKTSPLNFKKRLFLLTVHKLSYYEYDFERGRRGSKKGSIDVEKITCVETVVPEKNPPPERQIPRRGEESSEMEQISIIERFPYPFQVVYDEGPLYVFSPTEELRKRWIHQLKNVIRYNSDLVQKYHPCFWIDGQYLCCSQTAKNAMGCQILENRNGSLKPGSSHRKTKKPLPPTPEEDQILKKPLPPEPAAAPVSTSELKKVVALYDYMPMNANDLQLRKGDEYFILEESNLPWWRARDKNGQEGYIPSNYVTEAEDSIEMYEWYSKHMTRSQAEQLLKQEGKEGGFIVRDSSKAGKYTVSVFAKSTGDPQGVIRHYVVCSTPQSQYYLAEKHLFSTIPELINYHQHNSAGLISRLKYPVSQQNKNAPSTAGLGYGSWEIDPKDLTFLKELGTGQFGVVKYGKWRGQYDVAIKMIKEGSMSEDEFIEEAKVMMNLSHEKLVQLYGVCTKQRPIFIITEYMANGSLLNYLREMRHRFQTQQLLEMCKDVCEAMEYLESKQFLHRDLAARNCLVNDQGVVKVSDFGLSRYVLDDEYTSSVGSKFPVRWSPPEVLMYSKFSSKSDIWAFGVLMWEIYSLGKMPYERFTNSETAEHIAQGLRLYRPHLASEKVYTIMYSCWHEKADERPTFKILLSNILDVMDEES
In short: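 BTK C481S tracer-displacement TR-FRET: 5 nM His-tagged kinase, 2 nM Eu anti-His antibody and 30 nM Kinase Tracer 236 incubated with titrated inhibitor for 5 h in Kinase Buffer A. Read at 340 nm excitation, 615/665 nm emission; IC50 from variable-slope log[inhibitor]–response fit.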

[4] = target: T3, Recombinant BTK^WT kinase (Homo sapiens, UniProt Q06187); assay: BTK WT binding affinity (LanthaScreen TR-FRET); conditions: Kinase Tracer 236, 5 h incubation
T3 construct: purchased Invitrogen
T3 sequence (Q06187 whole entry): as the sequence (Q06187 whole entry C481S) above, with S481C counted along it
In short: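 Tracer-displacement TR-FRET: 2.5 nM recombinant BTK^WT, 2 nM Eu anti-His antibody and 15 nM Kinase Tracer 236 incubated with varying inhibitor concentrations for 5 h in Kinase Buffer A. Signal read at 340 nm excitation, 615/665 nm emission; IC50 from variable-slope log[inhibitor]–response fit.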

[5] = OCI-Ly10 cells, 72 h compound treatment, Resazurin

| Structure (SMILES) | IC50 [1, 5] [nM] | IC50 [2] [µM] | IC50 [3] [nM] | IC50 [4] [nM] | IC50 [1] [nM] |
| --- | --- | --- | --- | --- | --- |
| COc1ccc(F)cc1C(=O)NCc1cc(F)c(-c2nn(C3CCOCC3)c(N)c2C(N)=O)cc1F [Example 146, 5-amino-3-[2,5-difluoro-4-[[(5-fluoro-2-methoxy-benzoyl)amino]methyl]phenyl]-1-tetrahydropyran-4-yl-pyrazole-4-carboxamide] | 100 to 1000 | > 10 | < 10 | < 10 |  |
| COc1ccccc1C(=O)NCc1ccc(-c2nn(C3COC(C)(C)C3)c(N)c2C(N)=O)cc1 (centres unmarked) [Example 147, 5-amino-1-(5,5-dimethyltetrahydrofuran-3-yl)-3-[4-[[(2-methoxybenzoyl)amino]methyl]phenyl]pyrazole-4-carboxamide] | 10 to 100 | 1 to 10 | < 10 | < 10 |  |
| COc1ccccc1C(=O)NCc1cc(F)c(-c2nn(C3CCOCC3)c(N)c2C(N)=O)cc1F [Example 148, 5-amino-3-[2,5-difluoro-4-[[(2-methoxybenzoyl)amino]methyl]phenyl]-1-tetrahydropyran-4-yl-pyrazole-4-carboxamide] | 100 to 1000 | > 10 | < 10 | 10 to 100 |  |
| COc1ccc(F)cc1C(=O)NCc1cc(F)c(-c2nn(C3CCCOC3)c(N)c2C(N)=O)cc1F (centres unmarked) [Example 149, 5-amino-3-[2,5-difluoro-4-[[(5-fluoro-2-methoxy-benzoyl)amino]methyl]phenyl]-1-tetrahydropyran-3-yl-pyrazole-4-carboxamide] | 10 to 100 | > 10 | < 10 | < 10 |  |
| CCC(C)n1nc(-c2ccc(CNC(=O)c3ccccc3OC)cc2)c(C(N)=O)c1N (centres unmarked) [Example 150, 5-amino-3-[4-[[(2-methoxybenzoyl)amino]methyl]phenyl]-1-sec-butyl-pyrazole-4-carboxamide] | 10 to 100 | 1 to 10 | < 10 | < 10 |  |
| COc1ccccc1C(=O)NCc1cc(F)c(-c2nn(C3CCCOC3)c(N)c2C(N)=O)cc1F (centres unmarked) [Example 151, 5-amino-3-[2,5-difluoro-4-[[(2-methoxybenzoyl)amino]methyl]phenyl]-1-tetrahydropyran-3-yl-pyrazole-4-carboxamide] | 100 to 1000 | 1 to 10 | < 10 | < 10 |  |
| COc1ccccc1C(=O)NCc1cc(F)c(-c2nn(C3CCOC3)c(N)c2C(N)=O)cc1F (centres unmarked) [Example 152, 5-amino-3-[2,5-difluoro-4-[[(2-methoxybenzoyl)amino]methyl]phenyl]-1-tetrahydrofuran-3-yl-pyrazole-4-carboxamide] | 100 to 1000 | > 10 | 10 to 100 | 10 to 100 |  |
| COc1ccc(F)cc1C(=O)NCc1cc(F)c(-c2nn(C3CCOC3)c(N)c2C(N)=O)cc1F (centres unmarked) [Example 153, 5-amino-3-[2,5-difluoro-4-[[(5-fluoro-2-methoxy-benzoyl)amino]methyl]phenyl]-1-tetrahydrofuran-3-yl-pyrazole-4-carboxamide] | 100 to 1000 | > 10 | < 10 | 10 to 100 |  |
| COc1ccc(F)cc1C(=O)NCc1ccc(-c2nn(C3CCCC3)c(N)c2C(N)=O)c(F)c1F [Example 154, 5-amino-1-cyclopentyl-3-[2,3-difluoro-4-[[(5-fluoro-2-methoxy-benzoyl)amino]methyl]phenyl]pyrazole-4-carboxamide] | 10 to 100 | > 10 | < 10 | < 10 |  |
| COc1ccccc1C(=O)NCc1ccc(-c2nn(C3CCCC3)c(N)c2C(N)=O)c(F)c1F [Example 155, 5-amino-1-cyclopentyl-3-[2,3-difluoro-4-[[(2-methoxybenzoyl)amino]methyl]phenyl]pyrazole-4-carboxamide] | 10 to 100 | 1 to 10 | < 10 | < 10 |  |
| COc1ccccc1C(=O)NCc1cc(F)c(-c2nn(C3CCCC3)c(N)c2C(N)=O)cc1F [Example 156, 5-amino-1-cyclopentyl-3-[2,5-difluoro-4-[[(2-methoxybenzoyl)amino]methyl]phenyl]pyrazole-4-carboxamide] | 10 to 100 | > 10 | < 10 | < 10 |  |
| COc1ccccc1C(=O)NCc1ccc(-c2nn(C3CCCOC3)c(N)c2C(N)=O)c(F)c1F (centres unmarked) [Example 157, 5-amino-3-[2,3-difluoro-4-[[(2-methoxybenzoyl)amino]methyl]phenyl]-1-tetrahydropyran-3-yl-pyrazole-4-carboxamide] | 10 to 100 | > 10 | < 10 | < 10 |  |
| COc1ccc(F)cc1C(=O)NCc1c(F)cc(-c2nn(C3CCCOC3)c(N)c2C(N)=O)cc1F (centres unmarked) [Example 158, 5-amino-3-[3,5-difluoro-4-[[(5-fluoro-2-methoxy-benzoyl)amino]methyl]phenyl]-1-tetrahydropyran-3-yl-pyrazole-4-carboxamide] | 100 to 1000 | > 10 | 10 to 100 | 10 to 100 |  |
| COc1ccc(F)cc1C(=O)NCc1ccc(-c2nn(C3CCCOC3)c(N)c2C(N)=O)c(F)c1F (centres unmarked) [Example 159, 5-amino-3-[2,3-difluoro-4-[[(5-fluoro-2-methoxy-benzoyl)amino]methyl]phenyl]-1-tetrahydropyran-3-yl-pyrazole-4-carboxamide] | 10 to 100 | > 10 | < 10 | < 10 |  |
| COc1ccccc1C(=O)NCc1ccc(-c2nn(C3CNCC3(F)F)c(N)c2C(N)=O)cc1F (centres unmarked) [Example 160, 5-amino-1-(4,4-difluoropyrrolidin-3-yl)-3-[3-fluoro-4-[[(2-methoxybenzoyl)amino]methyl]phenyl]pyrazole-4-carboxamide] | 100 to 1000 | 1 to 10 | < 10 | 10 to 100 |  |
| COc1ccc(F)cc1C(=O)NCc1ccc(-c2nn(C(C)C3CCOCC3)c(N)c2C(N)=O)cc1 (centres unmarked) [Example 161, 5-amino-3-[4-[[(5-fluoro-2-methoxy-benzoyl)amino]methyl]phenyl]-1-(1-tetrahydropyran-4-ylethyl)pyrazole-4-carboxamide] | 100 to 1000 | > 10 | < 10 | 10 to 100 |  |
| COc1ccc(F)cc1C(=O)NCc1ccc(-c2nn([C@H]3CCOC3)c(N)c2C(N)=O)cc1 [Example 162, 5-amino-3-[4-[[(5-fluoro-2-methoxy-benzoyl)amino]methyl]phenyl]-1-[(3S)-tetrahydrofuran-3-yl]pyrazole-4-carboxamide] | 10 to 100 | 1 to 10 | < 10 | < 10 |  |
| COc1ccc(F)cc1C(=O)NCc1ccc(-c2nn([C@@H]3CCOC3)c(N)c2C(N)=O)cc1 [Example 164, 5-amino-3-[4-[[(5-fluoro-2-methoxy-benzoyl)amino]methyl]phenyl]-1-[(3R)-tetrahydrofuran-3-yl]pyrazole-4-carboxamide] | 10 to 100 | 1 to 10 | < 10 | < 10 |  |
| COc1ccc(F)cc1C(=O)NCc1ccc(-c2nn(C(C)C(F)(F)F)c(N)c2C(N)=O)c(F)c1F (centres unmarked) [Example 165, 5-amino-3-[2,3-difluoro-4-[[(5-fluoro-2-methoxy-benzoyl)amino]methyl]phenyl]-1-(2,2,2-trifluoro-1-methyl-ethyl)pyrazole-4-carboxamide] | 10 to 100 | 1 to 10 | < 10 | 10 to 100 |  |
| COc1ccccc1C(=O)NCc1ccc(-c2nn(C3CN(C)CC3(F)F)c(N)c2C(N)=O)cc1F (centres unmarked) [Example 166, 5-amino-1-(4,4-difluoro-1-methyl-pyrrolidin-3-yl)-3-[3-fluoro-4-[[(2-methoxybenzoyl)amino]methyl]phenyl]pyrazole-4-carboxamide] | 10 to 100 | 1 to 10 | < 10 | 10 to 100 |  |
| COc1ccccc1C(=O)NCc1ccc(-c2nn(C3CN(C)CC3(F)F)c(N)c2C(N)=O)cc1 (centres unmarked) [Example 167, 5-amino-1-(4,4-difluoro-1-methyl-pyrrolidin-3-yl)-3-[4-[[(2-methoxybenzoyl)amino]methyl]phenyl]pyrazole-4-carboxamide] | 10 to 100 | 1 to 10 | < 10 | < 10 |  |
| COc1ccc(F)cc1C(=O)NCc1cc(F)c(-c2nn(C(C)C(F)(F)F)c(N)c2C(N)=O)cc1F (centres unmarked) [Example 168, 5-amino-3-[2,5-difluoro-4-[[(5-fluoro-2-methoxy-benzoyl)amino]methyl]phenyl]-1-(2,2,2-trifluoro-1-methyl-ethyl)pyrazole-4-carboxamide] |  | 1 to 10 | < 10 | 10 to 100 | 10 to 100 |
| COc1ccc(F)cc1C(=O)NCc1ccc(-c2nn(C3CNCC3(F)F)c(N)c2C(N)=O)cc1 (centres unmarked) [Example 169, 5-amino-1-(4,4-difluoropyrrolidin-3-yl)-3-[4-[[(5-fluoro-2-methoxy-benzoyl)amino]methyl]phenyl]pyrazole-4-carboxamide] | 10 to 100 | 1 to 10 | < 10 | < 10 |  |
